The target in the test is Glycogen synthase kinase-3 alpha (Homo sapiens) (UniProt P49840). Kind of test: concentration-response blocking of human GSK3A – biochemical, luminescence, cell-free homogeneous, retest, dose response (AID 463203). Conditions: GSK-3 alpha enzyme, ADP-Glo luminescence, 60 min. On the technique in general: ADP-Glo turns the ADP formed in a reaction into a luminescent signal.

Active and inactive are the calls of the source.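 Rule for the calls: active = more than half of replicate measurements showing over 20% loss of kinase signal relative to plate controls; inconclusive = some but at most half of replicates over 20% loss; inactive = no replicate over 20% signal loss.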

The AC50 is the midpoint of the concentration-response curve, whichever way the signal moves.

Glycogen synthase kinase-3 alpha (Homo sapiens), sequence (P49840 whole entry, looked up): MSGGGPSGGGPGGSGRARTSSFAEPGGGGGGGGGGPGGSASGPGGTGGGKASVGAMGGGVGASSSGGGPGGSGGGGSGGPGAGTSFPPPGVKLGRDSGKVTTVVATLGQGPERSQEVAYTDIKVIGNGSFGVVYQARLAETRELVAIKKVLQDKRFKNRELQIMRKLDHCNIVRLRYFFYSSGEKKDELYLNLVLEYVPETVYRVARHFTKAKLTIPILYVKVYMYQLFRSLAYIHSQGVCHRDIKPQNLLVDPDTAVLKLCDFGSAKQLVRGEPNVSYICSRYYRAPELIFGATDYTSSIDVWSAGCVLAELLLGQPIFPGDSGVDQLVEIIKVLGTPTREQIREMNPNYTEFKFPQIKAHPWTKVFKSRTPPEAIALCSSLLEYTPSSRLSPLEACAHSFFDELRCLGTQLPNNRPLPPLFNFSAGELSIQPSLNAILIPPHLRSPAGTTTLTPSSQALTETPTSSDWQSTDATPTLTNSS

Take `COc1cccc(/C=N/n2cncn2)c1OCC#N`: the AC50 was > 30 µM (inactive).

Regarding `CCn1c(SCc2nc3sc(C(=O)O)c(C)c3c(=O)[nH]2)nc2ccccc21`, the AC50 was 10.8 µM.

`COc1ccc(/C=C(\C#N)C(=O)N=CN(C)C)cc1`: the AC50 is > 30 µM (inactive).

Consider `CC(C)(C)OC(=O)N1CCC(NC(=O)c2[nH]cnc2C(=O)Nc2ccc(Cl)cc2)CC1`, for which the AC50 was > 30 µM (inactive).

Take `COc1ccc(-c2nc(N)ncc2-c2ccccc2)c(O)c1`: the concentration at half-maximal activity (AC50) is 15.5 µM.

Take `CCOC(=O)/C(C#N)=C/c1cn(CCC(=O)O)nc1-c1cccc(Br)c1`: the AC50 was > 30 µM (inactive).

`CCC(CC)c1nnc(NC(=O)CCN2C(=O)c3ccccc3C2=O)s1`: the AC50 is > 30 µM (inactive).

Turning to `O=C(Nc1sc2c(c1C(=O)N1CCOCC1)CCCCC2)c1cccnc1`, the AC50 is > 30 µM (inactive).

For the compound `Cc1cccc(NC(=O)CSCC(=O)OCc2ccccn2)c1`, the AC50 was > 30 µM (inactive).

On to `Cc1cccc(Nc2ncccc2C(=O)O)c1C`, for which the AC50 is > 30 µM (inactive).

Regarding `NC(=O)c1ccc(NCCCN2CCOCC2)c([N+](=O)[O-])c1`, the AC50 was > 30 µM (inactive).

Regarding `O=C(O)COc1c(Cl)cc(/C=C2/NC(=O)NC2=O)cc1Br`, the AC50 is 23 µM.

As to `Cc1c(/C=N/Nc2ccc([N+](=O)[O-])cn2)c2ccccc2n1Cc1ccccc1`, the AC50 was > 30 µM (inactive).

With `Cc1onc(-c2ccccc2Cl)c1C(=O)Nc1cccc(-c2cn3cccnc3n2)c1`, the AC50 was > 30 µM (inactive).

On to `Cc1ccc(C)c(-n2c3nc(=O)n(C)c(=O)c-3cc3ccccc32)c1`, for which the half-maximal activity concentration (AC50) is 31.3 µM.

On to `CCCCC(=O)Nc1nn(CC)c2nc3c(C)cccc3cc12`, for which the AC50 is > 30 µM (inactive).

In the case of `C=CCNc1nc(N)c([N+](=O)[O-])c(N2CCCCCC2)n1`, the AC50 was 29.1 µM.

Regarding `CCCCOC(=O)CNc1n[nH]c(=S)[nH]c1=O`, the AC50 was > 30 µM (inactive).

In the case of `CN1/C(=C/C(=S)NC(=O)C2(C)CC2(Cl)Cl)C(C)(C)c2ccccc21` (configuration not stated), the AC50 is > 30 µM (inactive).

As for `CCOC(=O)c1oc2ccc3c(c2c1C)C(=O)CC1(CCN(C(=O)OCC)CC1)O3`, the AC50 was > 30 µM (inactive).

With `Fc1cccc(/C=N/Nc2ccc3ccccc3n2)c1`, the AC50 was > 30 µM (inactive).

For `CC(=O)OCC1OC(n2ccc(=O)[nH]c2=O)C(O)C1O` (configuration not stated), the AC50 was > 30 µM (inactive).

On to `Cc1ccc(S(=O)(=O)N(CC(O)CN2CCCC2)c2ccccc2)cc1` (configuration not stated), for which the AC50 was > 30 µM (inactive).

`Cc1cccc(C(=O)Nc2cccc(-c3cnc4ccccc4n3)c2)c1`: the AC50 is > 30 µM (inactive).

Consider `COc1ccc2nc(SCC(=O)Nc3nccs3)[nH]c2c1`, for which the AC50 is 7.82 µM.

As for `CCOC(=O)C1=C(CC)OC(N)=C(C#N)C1c1ccc(NC(C)=O)cc1` (configuration not stated), the AC50 is > 30 µM (inactive).

Regarding `COc1ccc(N=Cc2c(O)[nH]c3ccccc23)cc1OC`, the AC50 is 20.3 µM.

For the compound `Cc1n[nH]c(=S)n1/N=C/c1ccc(-c2ccccc2[N+](=O)[O-])o1`, the half-maximal activity concentration (AC50) was 24.9 µM.

On to `CC(C)NC(=O)c1sc2nc3c(c(-c4cccs4)c2c1N)CN(C)CC3`, for which the AC50 was > 30 µM (inactive).

With `O=C(COC(=O)Cc1ccc(F)cc1)Nc1ccc(Cl)cn1`, the AC50 was 14.1 µM.

For `COc1ccc(C(=O)c2ccccc2Cl)cc1`, the AC50 was > 30 µM (inactive).

In the case of `COc1cccc(Nc2ncnc3nc[nH]c23)c1`, the half-maximal activity concentration (AC50) was 19.7 µM.

Take `c1cc2[nH]snc2c2nc(C3CC3)nc12`: the half-maximal activity concentration (AC50) was 20.8 µM.

As to `CCOC(=O)c1cc(CC)sc1NC(=O)COC(=O)c1ccccn1`, the AC50 is > 30 µM (inactive).

Take `c1ccc2c(c1)ccc1nnc(SCc3ccc4c(c3)OCO4)n12`: the AC50 was > 30 µM (inactive).

With `FC(F)(F)COc1ccc(-c2nnc(SCc3c(Cl)cccc3Cl)o2)cn1`, the AC50 is > 30 µM (inactive).

With `CC(Oc1ccccc1)C(=O)Nc1nnc(C2CCCCC2)s1` (configuration not stated), the AC50 was > 30 µM (inactive).

Regarding `COc1ccc(C(=O)c2sc(NC(C)C)nc2N)cc1OC`, the half-maximal activity concentration (AC50) is 0.234 µM.

For the compound `Cc1cccc(N(C)C(=O)C2CCCN2S(=O)(=O)c2cccc3nsnc23)c1` (configuration not stated), the AC50 is 24.8 µM.

Turning to `Cc1ccnc(NC(=O)Cn2c(=O)oc3cc(S(=O)(=O)N4CCCC4)ccc32)c1`, the AC50 was 26.9 µM.

For `Cc1cc(C)c(OCC(O)CNC(C)(C)C)c(C)c1` (configuration not stated), the AC50 was > 30 µM (inactive).

Consider `COC(=O)c1sc2cnccc2c1N`, for which the AC50 is 24.8 µM.

Consider `Cc1nnc(N/N=C/c2ccc(-c3ccc(Br)cc3)o2)n1N`, for which the AC50 is 15.4 µM.

Turning to `Oc1ccc2oc3c(c2c1C=NCc1ccncc1)CCCC3`, the AC50 was > 30 µM (inactive).

On to `Cc1sc2ncnc(NCCCN3CCCC3=O)c2c1C`, for which the AC50 was 21.5 µM.

`CCOC(=O)c1[nH]c(C)c(C(=O)OCCOc2cccc(C)c2)c1C`: the AC50 is > 30 µM (inactive).

In the case of `CC(=O)c1c(O)cc(O)cc1CC(=O)O`, the AC50 is > 30 µM (inactive).

In the case of `CC12CCC(C(=O)Nc3ncc([N+](=O)[O-])s3)(OC1=O)C2(C)C` (configuration not stated), the AC50 is > 30 µM (inactive).

Turning to `COc1ccc(CNC(=O)c2cc(COc3c(F)cccc3F)on2)cc1OC`, the AC50 is > 30 µM (inactive).

In the case of `Cc1cccc(C(=O)O/N=C(\N)c2cccc([N+](=O)[O-])c2)c1`, the AC50 was > 30 µM (inactive).

Turning to `Cc1[nH]nc2c1C(c1ccsc1)C1=C(CC(C)(C)CC1=O)N2` (configuration not stated), the concentration at half-maximal activity (AC50) was 1.06 µM.

For `CCCc1cc(NCc2ccccn2)n2c(nc3ccccc32)c1C#N`, the AC50 was > 30 µM (inactive).

For the compound `O=[N+]([O-])c1ccc(Nc2nc(NC3CCCCC3)nc(N3CCCC3)n2)cc1`, the AC50 is > 30 µM (inactive).

On to `O=C(O)Cn1c(=O)c2c3c(sc2n(Cc2ccc(Cl)cc2Cl)c1=O)CCCC3`, for which the AC50 is > 30 µM (inactive).

Consider `O=[N+]([O-])c1ccc(NC2CCCC2)cc1`, for which the AC50 was > 30 µM (inactive).

Regarding `N#CCCN(Cc1ccccc1)S(=O)(=O)c1cccs1`, the AC50 is > 30 µM (inactive).

Take `CCOC(=O)C(CC)Sc1ccc2nnc(-c3cccnc3)n2n1` (configuration not stated): the AC50 is > 30 µM (inactive).

On to `COc1cc(/C=C2\Oc3ccc(C#Cc4ccc(O)cc4)cc3C2=O)cc(OC)c1`, for which the AC50 is > 30 µM (inactive).

Turning to `Cc1cc(/C=N/Nc2ccc([N+](=O)[O-])cn2)c(C)n1-c1cccc(C(=O)O)c1`, the half-maximal activity concentration (AC50) is 14.6 µM.

Regarding `Cc1cn(C2OC(CC(=O)Oc3ccccc3)C(O)C2O)c(=O)[nH]c1=O` (configuration not stated), the AC50 is 19.1 µM.

As to `C/C(CC(=O)N(C(C)C)C(C)C)=N\NC(=O)COc1ccc(Cl)cc1Cl`, the AC50 is > 30 µM (inactive).

With `CCN1CCN(c2nc(N(C)c3ccccc3)nc(N)c2[N+](=O)[O-])CC1`, the AC50 was > 30 µM (inactive).

Regarding `CCc1cc(C(=O)c2ccc(OC)cc2)c(NC(=O)COCC(=O)O)s1`, the AC50 was > 30 µM (inactive).

`CCOC(=O)c1cnc2c(Cl)c(Cl)ccc2c1N1CCN(C)CC1`: the AC50 is > 30 µM (inactive).

On to `COc1ccc(OCc2nc(N)nc(Nc3ccccc3OC)n2)cc1`, for which the AC50 was > 30 µM (inactive).

As to `Cc1ccnc(NC(=O)CCC(=O)N(CC(=O)NCc2ccc(F)cc2)Cc2ccco2)c1`, the AC50 was > 30 µM (inactive).

Consider `O=C(c1ccc(Cn2cnnn2)cc1)N1CCCC(Nc2ccc(F)c(F)c2)C1` (configuration not stated), for which the AC50 was 16.1 µM.

Turning to `CN(C)C(=S)Nc1ccc([N+](=O)[O-])cc1`, the AC50 was > 30 µM (inactive).

Take `CSc1nc(SCCN(C)C)c2c3c(sc2n1)COC(C)(C)C3`: the AC50 was > 30 µM (inactive).

For the compound `C/C(=N\NC(=O)CSc1nc(C)[nH]c1[N+](=O)[O-])c1ccc(F)cc1`, the AC50 is > 30 µM (inactive).

Turning to `CC(=O)N1CCN(c2ccccc2NC(=O)c2ccc(Br)o2)CC1`, the AC50 was 10.3 µM.

Consider `COC(=O)c1c(NC(=O)CN2C(=O)NC3(CCC(C)CC3)C2=O)sc2c1CCC2` (configuration not stated), for which the AC50 is > 30 µM (inactive).

`O=c1[nH]c2c(s1)C(c1ccc(O)cc1)C1C3CCC(C3)C1S2` (configuration not stated): the AC50 was 0.649 µM.

For `COC(=O)c1c(C(C)=O)cnc2ccc(Br)cc12`, the AC50 is > 30 µM (inactive).

Turning to `CCN(CC)S(=O)(=O)c1ccc2oc(C(=O)N3CCOCC3)c(C)c2c1`, the AC50 was > 30 µM (inactive).

As to `O=C(Nc1ncc([N+](=O)[O-])s1)c1ccc2c(c1)OCO2`, the AC50 was > 30 µM (inactive).

Take `C=CCc1cc(/C=N/n2cnnc2)cc(OCC)c1O`: the AC50 was > 30 µM (inactive).

In the case of `Cc1occc1C(=O)N/N=C/c1ccc(N(C)C)cc1`, the AC50 is 23.1 µM.

In the case of `CCOc1ccccc1C1N(c2ccc(OC)cc2)C(=O)C2CCCN21` (configuration not stated), the AC50 is > 30 µM (inactive).

Turning to `O=C(/C(=N/N=C/c1ccc(O)c(O)c1)c1ccccc1)c1ccccc1`, the AC50 is > 30 µM (inactive).

As for `Cc1ccc(CNc2nc(N)c([N+](=O)[O-])c(NCc3ccccc3)n2)cc1`, the AC50 is > 30 µM (inactive).

In the case of `O=C(c1cccnc1NCc1ccccc1)N1CCOCC1`, the AC50 is > 30 µM (inactive).

Consider `COC(=O)c1ccc(CSc2n[nH]c(=S)s2)o1`, for which the AC50 is > 30 µM (inactive).

`CCc1nnc(NC(=O)CCc2nc(C3=CCN(C)CC3)no2)s1`: the AC50 was > 30 µM (inactive).

As for `CC1CCC2(CC1)NC(=O)N(CC(=O)Nc1ccc(C(N)=O)cc1)C2=O` (configuration not stated), the AC50 is > 30 µM (inactive).

Consider `CCN(C(=O)CN1CC=C(c2ccccc2)CC1)c1c(N)n(Cc2ccccc2)c(=O)[nH]c1=O`, for which the AC50 was > 30 µM (inactive).

Regarding `CSCCC1NC(=S)N(Cc2ccccc2)C1=O` (configuration not stated), the AC50 is > 30 µM (inactive).

Consider `COc1cc(/C=N/NC(=O)c2cccc(C(=O)N/N=C/c3ccc(O)c(OC)c3)n2)ccc1O`, for which the AC50 was > 30 µM (inactive).

Regarding `O=c1c2ccccc2oc2cc(NCCCn3ccnc3)ccc12`, the AC50 is > 30 µM (inactive).

In the case of `CCS(=O)(=O)N1CCN(c2ccnc3cc(Cl)ccc23)CC1`, the AC50 is > 30 µM (inactive).

As to `CCOC(=O)N1CCC(N2CCN(S(=O)(=O)c3ccc(C)cc3)CC2)CC1`, the AC50 was > 30 µM (inactive).

In the case of `CC1CCCCC1NC(=O)C(=O)NCC1CCCO1` (configuration not stated), the AC50 is > 30 µM (inactive).

For the origin of these results see PubChem BioAssay AID463203 (Broad Institute, 2010).
